Reference: patent US9492444B2, “Extruded extended release abuse deterrent pill” (Pharmaceutical Manufacturing Research Services, Inc., priority 2013, dated 2016)

Experiments:
[1] = cited from earlier work
[2] = General solubility of exemplary components; assay type: physicochemical; details: 200 proof ethanol, filtered through 0.22 micrometer PTFE filter
Excerpt: The following table lists the relative solubility of exemplary components of a formulation. A number of different dyes are listed along with their solubility information taken from the various literature sources and tested experimentally (200 proof ethanol and filtered through a 0.22 micrometer PTFE filter).

CCN(Cc1cccc(S(=O)(=O)[O-])c1)c1ccc(C(=C2C=CC(=[N+](CC)Cc3cccc(S(=O)(=O)[O-])c3)C=C2)c2ccccc2S(=O)(=O)[O-])cc1.[Na+].[Na+] [Blue #1]
Yes: Alcohol Solubility (Literature) [1] | Water Solubility [1] | Alcohol Solubility (tested) [2]

O=C1/C(=C2\Nc3ccc(S(=O)(=O)[O-])cc3C2=O)Nc2ccc(S(=O)(=O)[O-])cc21.[Na+].[Na+] [Blue #2]
Yes: Alcohol Solubility (Literature) [1] | Water Solubility [1] | Alcohol Solubility (tested) [2]

COc1cc(S(=O)(=O)[O-])c(C)cc1N=Nc1c(O)ccc2cc(S(=O)(=O)[O-])ccc12.[Na+].[Na+] [Red #40]
Yes: Alcohol Solubility (Literature) [1] | Water Solubility [1] | Alcohol Solubility (tested) [2]

O=C([O-])C1=NN(c2ccc(S(=O)(=O)[O-])cc2)C(=O)C1N=Nc1ccc(S(=O)(=O)[O-])cc1.[Na+].[Na+].[Na+] (stereo not drawn) [Yellow #5]
Yes: Alcohol Solubility (Literature) [1] | Water Solubility [1] | Alcohol Solubility (tested) [2]
